From ChEMBL document CHEMBL4616625, “The Medicinal Chemistry in the Era of Machines and Automation: Recent Advances in Continuous Flow Technology” (J Med Chem, 2020)

Tests used:
[1] = target: T1, Alpha-1B adrenergic receptor (Homo sapiens, UniProt P35368); assay: Inhibition of alpha1B adrenergic receptor (unknown origin)
T1 sequence (P35368 whole entry): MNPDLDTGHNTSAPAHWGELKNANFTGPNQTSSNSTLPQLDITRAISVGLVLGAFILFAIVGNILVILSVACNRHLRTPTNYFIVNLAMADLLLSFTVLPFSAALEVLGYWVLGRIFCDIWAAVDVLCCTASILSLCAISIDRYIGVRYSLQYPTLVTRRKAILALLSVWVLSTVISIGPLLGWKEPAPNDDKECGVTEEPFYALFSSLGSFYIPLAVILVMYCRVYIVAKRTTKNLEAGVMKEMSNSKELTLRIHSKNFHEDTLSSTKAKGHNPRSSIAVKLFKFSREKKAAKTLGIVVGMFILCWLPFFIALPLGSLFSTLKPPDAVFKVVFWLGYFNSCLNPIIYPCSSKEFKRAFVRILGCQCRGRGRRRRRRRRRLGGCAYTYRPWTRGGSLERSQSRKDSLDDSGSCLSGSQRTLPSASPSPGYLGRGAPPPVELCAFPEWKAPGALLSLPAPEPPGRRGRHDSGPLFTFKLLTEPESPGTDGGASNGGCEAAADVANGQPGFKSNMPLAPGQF

Albumin = Albumin (Homo sapiens, UniProt P02768); assay: Binding affinity to albumin (unknown origin); type: ADME
Sequence of Albumin (P02768 whole entry): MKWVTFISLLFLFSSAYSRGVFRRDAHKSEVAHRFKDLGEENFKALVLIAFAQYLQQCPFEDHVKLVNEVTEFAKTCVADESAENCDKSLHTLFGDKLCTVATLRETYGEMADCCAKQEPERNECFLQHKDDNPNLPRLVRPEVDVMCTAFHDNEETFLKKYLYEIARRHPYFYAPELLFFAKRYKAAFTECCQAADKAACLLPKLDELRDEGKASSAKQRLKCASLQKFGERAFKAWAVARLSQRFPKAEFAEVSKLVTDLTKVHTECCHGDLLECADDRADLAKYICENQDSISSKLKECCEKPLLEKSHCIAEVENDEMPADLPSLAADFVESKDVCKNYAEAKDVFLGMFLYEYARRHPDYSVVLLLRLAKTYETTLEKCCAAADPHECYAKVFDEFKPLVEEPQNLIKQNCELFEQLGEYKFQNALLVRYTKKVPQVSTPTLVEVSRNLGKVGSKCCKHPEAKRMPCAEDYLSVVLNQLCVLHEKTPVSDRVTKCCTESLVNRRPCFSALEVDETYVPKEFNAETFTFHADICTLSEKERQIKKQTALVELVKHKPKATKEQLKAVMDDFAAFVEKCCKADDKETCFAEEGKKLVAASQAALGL

SMILES	Ki [1] [µM]	Kd (Albumin) [µM]
COc1ccc(-c2nc3ccccn3c2NCCN2CCOCC2)c(OC)c1	2	–
CCCN(CCC)C(=O)Cc1c(-c2ccc(Cl)cc2)nc2ccc(Cl)cn12 [ALPIDEM]	–	2
Cc1ccc(-c2nc3ccc(C)cn3c2CC(=O)N(C)C)cc1 [ZOLPIDEM]	–	63
